We go through 5 compounds from ChEMBL document CHEMBL4351009, “hERG optimizations of IMB1603, discovery of alternative benzothiazinones as new antitubercular agents” (Eur J Med Chem, 2019).

Assay [1] deals with Mycobacterium tuberculosis. In words: Antimycobacterial activity against multidrug resistance Mycobacterium tuberculosis 16883 clinical isolate assessed as reduction in bacterial cell viability incubated for 7 days by microplate alamar blue assay. The class given is functional. The following applies: Mycobacterium tuberculosis, 16883, 168 h. (Alamar Blue is a resazurin reagent that responds to reducing activity.)

Assay [2] has as its system Mycobacterium tuberculosis. As to the kind of experiment: Antimycobacterial activity against multidrug resistance Mycobacterium tuberculosis 16995 clinical isolate assessed as reduction in bacterial cell viability incubated for 7 days by microplate alamar blue assay. The following applies: Mycobacterium tuberculosis, 16995, 168 h. The class given is functional.

What is called MIC is the lowest concentration found to suppress growth.

Values after ≈ are worked out from the molar mass of the structure shown. Some results are limits rather than exact numbers.

In the case of `NNC(=O)c1ccncc1` [ISONIAZID], the MIC in assay [1] and in assay [2] was more than 40 µM throughout.
`O=c1nc(N2CC3CCC2CN3Cc2ccc(F)cc2)sc2c([N+](=O)[O-])cc(C(F)(F)F)cc12` (stereo not given): the figures for the MIC in assay [1] and in assay [2] were 0.062 µM (≈ 0.0307 µg/mL) and less than 0.035 µM, respectively.
`O=c1nc(N2CCN(CC3CCCCC3)CC2)sc2c([N+](=O)[O-])cc(C(F)(F)F)cc12` [MACOZINONE]: the MIC in assay [1] and in assay [2] was less than 0.035 µM throughout.
As for `O=c1nc(N2CCC3(CCN(c4ccc(F)cc4)C3)CC2)sc2c([N+](=O)[O-])cc(C(F)(F)F)cc12`, the MIC in assay [1] and in assay [2] was less than 0.035 µM in each case.
Regarding `CO[C@H]1/C=C/O[C@@]2(C)Oc3c(C)c(O)c4c(O)c(c(/C=N/N5CCN(C)CC5)c(O)c4c3C2=O)NC(=O)/C(C)=C\C=C\[C@H](C)[C@H](O)[C@@H](C)[C@@H](O)[C@@H](C)[C@H](OC(C)=O)[C@@H]1C` [RIFAMPIN], the MIC in assay [1] and in assay [2] was more than 40 µM throughout.
